Data set [1] relates to A-375. The data set is described as follows: Antiproliferative activity against human A-375 cells harboring B-RAF V600E mutant assessed as cell growth inhibition irradiated with sun light for 5 mins measured after 72 hrs by CCK-8 analysis. Format: functional, cell-based. Conditions: A-375, light or radiation study.
Data set [2] relates to A-375. The data set is described as follows: Antiproliferative activity against human A-375 cells harboring B-RAF V600E mutant assessed as cell growth inhibition irradiated with sun light for 10 mins measured after 72 hrs by CCK-8 analysis. Format: functional, cell-based. Conditions: A-375, light or radiation study.
The subject of data set [3] is A-375. The experiment in a line: Antiproliferative activity against human A-375 cells harboring B-RAF V600E mutant assessed as cell growth inhibition irradiated with 365 nm UV light for 0.5 mins measured after 72 hrs by CCK-8 analysis. Format: functional, cell-based. Conditions: A-375, light or radiation study.
For data set [4], the system named is A-375. The data set is described as follows: Inhibition of ERK phosphorylation in human A-375 cells at 0.1 to 10 uM incubated for 2 hrs irradiated with 365 nm UV light for 5 mins by Western blot analysis. It counts as cell-based. Conditions: dose 0.1-10 µM.
Data set [5] deals with A-375. The experiment in a line: Antiproliferative activity against human A-375 cells harboring B-RAF V600E mutant assessed as cell growth inhibition irradiated with 365 nm UV light for 2.5 mins measured after 72 hrs by CCK-8 analysis. It counts as functional, cell-based. Conditions: A-375, light or radiation study.
Data set [6] deals with A-375. The experiment in a line: Antiproliferative activity against human A-375 cells harboring B-RAF V600E mutant assessed as cell growth inhibition irradiated with 365 nm UV light for 5 mins measured after 72 hrs by CCK-8 analysis. Format: functional, cell-based. To be noted: A-375, light or radiation study.
Data set [7] deals with SK-MEL-1. The data set is described as follows: Antiproliferative activity against human SK-MEL-1 cells harboring […] B-RAF assessed as cell growth inhibition measured after 72 hrs by CCK-8 analysis. Format: functional, cell-based. Conditions: SK-MEL-1, 72 h.
Data set [8] has as its system A-375. The data set is described as follows: Antiproliferative activity against human A-375 cells harboring B-RAF V600E mutant assessed as cell growth inhibition irradiated with 365 nm UV light for 10 mins measured after 72 hrs by CCK-8 analysis. It counts as functional, cell-based. Conditions: A-375, light or radiation study.
Data set [9] has as its system A-375. The experiment in a line: Antiproliferative activity against human A-375 cells harboring B-RAF V600E mutant assessed as cell growth inhibition measured after 72 hrs by CCK-8 analysis. It counts as functional, cell-based. To be noted: A-375, 72 h.
The test system of data set [10] is SK-MEL-2. The experiment in a line: Antiproliferative activity against human SK-MEL-2 cells harboring wild type B-RAF assessed as cell growth inhibition irradiated with 365 nm UV light for 5 mins measured after 72 hrs by CCK-8 analysis. Format: functional, cell-based. To be noted: SK-MEL-2, light or radiation study.
The target in data set [11] is Serine/threonine-protein kinase B-raf (Homo sapiens, UniProt P15056, V600E). The data set is described as follows: Inhibition of GST-tagged recombinant human B-RAF V600E mutant expressed in baculovirus expression system incubated for 1 hr in presence of ATP by FRET-based Z'-Lyte analysis.
Data set [12] has as its system A-375. The experiment in a line: Inhibition of ERK phosphorylation in human A-375 cells at 0.1 to 10 uM incubated for 2 hrs by Western blot analysis. It counts as cell-based. Conditions: dose 0.1-10 µM. Background: In western blotting, separated proteins are transferred to a membrane and probed.
In data set [13] the test system is SK-MEL-1. The data set is described as follows: Antiproliferative activity against human SK-MEL-1 cells harboring […] B-RAF assessed as cell growth inhibition irradiated with 365 nm UV light for 5 mins measured after 72 hrs by CCK-8 analysis. It counts as functional, cell-based. To be noted: SK-MEL-1, light or radiation study.
Data set [14] can be described thus: Retention time of compound in PBS buffer by UPLC analysis. Conditions: dose 5.85 µg/ml. It counts as physicochemical.
Data set [15] relates to SK-MEL-2. The data set is described as follows: Antiproliferative activity against human SK-MEL-2 cells harboring wild type B-RAF assessed as cell growth inhibition measured after 72 hrs by CCK-8 analysis. It counts as functional, cell-based. Conditions: SK-MEL-2, 72 h.
The subject of data set [16] is A-375. The data set is described as follows: Antiproliferative activity against human A-375 cells harboring B-RAF V600E mutant assessed as cell growth inhibition irradiated with sun light for 0.5 mins measured after 72 hrs by CCK-8 analysis. Format: functional, cell-based. To be noted: A-375, light or radiation study.
For data set [17], the system named is A-375. The data set is described as follows: Antiproliferative activity against human A-375 cells harboring B-RAF V600E mutant assessed as cell growth inhibition irradiated with sun light for 2.5 mins measured after 72 hrs by CCK-8 analysis. Format: functional, cell-based. Conditions: A-375, light or radiation study.
The nature of data set [18]: Photorelease ability in PBS buffer assessed as N-(2,4-difluoro-3-((3-(4-fluorophenyl)-1H-pyrazolo[3,4-b]pyridin-5-yl)ethynyl)phenyl)pyridine-3-sulfonamide formation by measuring half life at 5.85 ug/ml irradiated with 365 nm UV light by UPLC analysis. Format: functional. Conditions: dose 5.85 µg/ml.
The nature of data set [19]: Photorelease ability in PBS buffer assessed as N-(2,4-difluoro-3-((3-(4-fluorophenyl)-1H-pyrazolo[3,4-b]pyridin-5-yl)ethynyl)phenyl)pyridine-3-sulfonamide formation by measuring half life at 5.85 ug/ml irradiated with sun light by UPLC analysis. It counts as functional. To be noted: dose 5.85 µg/ml.

SMILES strings stand for the structures. The source made the active and inactive calls. The rule behind the calls is not given here. Bounds are passed on as bounds.

Broadly, the IC50 is the midpoint of a concentration-inhibition curve.

Sequence of Serine/threonine-protein kinase B-raf (P15056 2-766 V600E limits assumed): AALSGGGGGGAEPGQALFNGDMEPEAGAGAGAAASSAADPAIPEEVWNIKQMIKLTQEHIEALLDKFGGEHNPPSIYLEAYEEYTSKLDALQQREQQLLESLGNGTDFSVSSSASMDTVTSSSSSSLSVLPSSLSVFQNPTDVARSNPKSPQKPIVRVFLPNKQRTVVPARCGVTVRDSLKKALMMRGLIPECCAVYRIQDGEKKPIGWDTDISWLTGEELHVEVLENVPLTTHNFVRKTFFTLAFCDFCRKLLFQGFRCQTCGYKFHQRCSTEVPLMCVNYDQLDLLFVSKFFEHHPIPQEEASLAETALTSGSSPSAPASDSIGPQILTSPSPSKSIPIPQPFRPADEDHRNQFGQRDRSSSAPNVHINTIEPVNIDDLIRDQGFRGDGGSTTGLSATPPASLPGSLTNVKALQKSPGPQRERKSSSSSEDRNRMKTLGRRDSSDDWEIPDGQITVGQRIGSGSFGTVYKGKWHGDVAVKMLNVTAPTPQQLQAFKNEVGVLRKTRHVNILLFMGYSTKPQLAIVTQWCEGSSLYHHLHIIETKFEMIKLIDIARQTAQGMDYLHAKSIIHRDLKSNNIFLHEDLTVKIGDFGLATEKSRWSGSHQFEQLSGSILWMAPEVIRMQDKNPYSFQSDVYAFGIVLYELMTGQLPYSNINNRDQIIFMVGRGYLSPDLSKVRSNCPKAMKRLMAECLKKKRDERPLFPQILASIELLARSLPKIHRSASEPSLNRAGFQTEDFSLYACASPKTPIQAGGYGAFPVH

Take `O=S(=O)(Nc1ccc(F)c(C#Cc2cnc3[nH]nc(-c4ccc(F)cc4)c3c2)c1F)c1cccnc1`: the half-maximal inhibitory concentration (IC50) came to 0.17 µM in data set [1]; 0.19 µM in data set [2]; 0.19 µM in data set [3]; 0.17 µM in data set [5]; 0.18 µM in data set [6]; 0.76 µM in data set [7]. Besides, the half-maximal inhibitory concentration (IC50) in data set [8] was 0.22 µM; in [9], 0.21 µM; in data set [10] it was more than 10 µM; in data set [11], 0.021 µM; in data set [13] it was 0.56 µM; in [15], more than 10 µM. The IC50 in data set [16] and in data set [17] was 0.16 µM each time. Also, the inhibition entry in data set [4] and in [12] was “Active” each time. For the same compound, the Retention_time in [14] turned out to be 1.7 min.
In the case of `COc1cc(CN(c2ccc(F)c(C#Cc3cnc4[nH]nc(-c5ccc(F)cc5)c4c3)c2F)S(=O)(=O)c2cccnc2)c([N+](=O)[O-])cc1OC`, the 50% inhibitory concentration (IC50) in data set [1] is 0.28 µM; in [2] it was 0.29 µM; in data set [3], 0.7 µM; in [5], 0.37 µM; in [6] it was 0.21 µM; in [7] it was more than 10 µM. Further, the concentration for half-maximal inhibition (IC50) in [8] was 0.24 µM; in [9] it was more than 10 µM; in data set [10] it was more than 10 µM; in data set [11], more than 10 µM; in data set [13] it was 0.84 µM; in [15] it was more than 10 µM. Besides, the IC50 in data set [16] was found to be 0.85 µM; in [17], 0.34 µM. In addition, the figures for the T1/2 in [18] and in [19] were 2 min and 2.8 min, respectively. The inhibition entry in data set [4] is “Active”. For the same compound, the Retention_time in [14] worked out at 5.9 min.
